# According to ChEMBL document CHEMBL1152282, “SAR profiles of spirocyclic nicotinamide derived selective HDAC1/HDAC2 inhibitors (SHI-1:2)” (Bioorg Med Chem Lett, 2008):
# Columns and labels:
# [1] = Half life in rat at 2.0 mg/kg, iv; assay type: ADME, organism-based; parameters: dose 2 mg/kg, route intravenous; conditions: in vivo
# [2] = Plasma clearance in dog at 0.90 mg/kg, iv; assay type: ADME, organism-based, Canis lupus familiaris; parameters: dose 0.9 mg/kg, route intravenous; conditions: 0.9 mg/kg
# [3] = Half life in dog at 0.90 mg/kg, iv; assay type: ADME, organism-based, Canis lupus familiaris; parameters: dose 0.9 mg/kg, route intravenous; conditions: in vivo, 0.9 mg/kg
# [4] = Oral bioavailability in rat at 4.0 mg/kg; assay type: ADME, organism-based; conditions: in vivo
# [5] = Cmax in mouse at 150 mg/kg, po; assay type: ADME, organism-based; parameters: dose 150 mg/kg, route oral; conditions: in vivo
# [6] = AUC in mouse at 150 mg/kg, po; assay type: ADME, organism-based; parameters: dose 150 mg/kg, route oral; conditions: plasma
# [7] = Plasma clearance in rat at 2.0 mg/kg, iv; assay type: ADME, organism-based; parameters: dose 2 mg/kg, route intravenous
# [8] = Volume of distribution at steady state in rat at 2.0 mg/kg, iv; assay type: ADME, organism-based; parameters: dose 2 mg/kg, route intravenous; conditions: in vivo, read-out: Vdss
# [9] = Plasma clearance in dog at 0.50 mg/kg, iv; assay type: ADME, organism-based, Canis lupus familiaris; parameters: dose 0.5 mg/kg, route intravenous; conditions: 0.5 mg/kg
# [10] = Volume of distribution at steady state in dog at 0.50 mg/kg, iv; assay type: ADME, organism-based, Canis lupus familiaris; parameters: dose 0.5 mg/kg, route intravenous; conditions: in vivo, 0.5 mg/kg, read-out: Vdss
# [11] = Half life in dog at 0.50 mg/kg, iv; assay type: ADME, organism-based, Canis lupus familiaris; parameters: dose 0.5 mg/kg, route intravenous; conditions: in vivo, 0.5 mg/kg
# [12] = Oral bioavailability in dog at 1.0 mg/kg; assay type: ADME, organism-based, Canis lupus familiaris; conditions: in vivo
# [13] = Solubility of the compound; assay type: physicochemical
# [14] = Distribution coefficient, log D of the compound; assay type: physicochemical; conditions: octanol/water
# [15] = Plasma concentration in human HCT116 cells xenografted CD1 mouse at 15 mg/kg, ip after 6 hrs; assay type: ADME, organism-based, HCT-116; parameters: dose 15 mg/kg, route intraperitoneal
# [16] = Plasma concentration in human HCT116 cells xenografted CD1 mouse at 15 mg/kg, ip after 24 hrs; assay type: ADME, organism-based, HCT-116; parameters: dose 15 mg/kg, route intraperitoneal
# [17] = Plasma concentration in human HCT116 cells xenografted CD1 mouse at 15 mg/kg, ip after 48 hrs; assay type: ADME, organism-based, HCT-116; parameters: dose 15 mg/kg, route intraperitoneal
# [18] = Plasma concentration in human HCT116 cells xenografted CD1 mouse at 15 mg/kg, ip after 72 hrs; assay type: ADME, organism-based, HCT-116; parameters: dose 15 mg/kg, route intraperitoneal
# [19] = Plasma concentration in human HCT116 cells xenografted CD1 mouse at 150 mg/kg, po after 6 hrs; assay type: ADME, organism-based, HCT-116; parameters: dose 150 mg/kg, route oral
# [20] = Plasma concentration in human HCT116 cells xenografted CD1 mouse at 150 mg/kg, po after 24 hrs; assay type: ADME, organism-based, HCT-116; parameters: dose 150 mg/kg, route oral
# [21] = Plasma concentration in human HCT116 cells xenografted CD1 mouse at 300 mg/kg, po after 6 hrs; assay type: ADME, organism-based, HCT-116; parameters: dose 300 mg/kg, route oral
# [22] = Plasma concentration in human HCT116 cells xenografted CD1 mouse at 300 mg/kg, po after 24 hrs; assay type: ADME, organism-based, HCT-116; parameters: dose 300 mg/kg, route oral
# Canis familiaris [23] = experiment: Plasma concentration in CV dog at 10 mg/kg, iv; assay type: ADME, organism-based, Canis lupus familiaris; parameters: dose 10 mg/kg, route intravenous; conditions: in vivo
# Canis familiaris [24] = experiment: Plasma concentration in CV dog at 3 mg/kg, iv; assay type: ADME, organism-based, Canis lupus familiaris; parameters: dose 3 mg/kg, route intravenous; conditions: in vivo
Structure (SMILES),half-life [1] [min],bioavailability [4] [%],Cmax [5] [µM],AUC [6] [µM·h],clearance [7] [mL/min/kg],Vd [8] [L/kg],clearance [9] [mL/min/kg],Vd [10] [L/kg],half-life [11] [min],bioavailability [12] [%],also measured
C[C@H]1CN(c2ccc(C(=O)Nc3ccccc3N)cn2)CCN1C(=O)OCc1ccccc1,55.8,37,–,–,–,–,–,–,–,–,clearance [2]: 7.4 mL/min/kg; half-life [3]: 336 min
Nc1ccc(-c2cccs2)cc1NC(=O)c1ccc(N2CCC3(CCNC3=O)CC2)nc1,–,–,34,88,–,–,–,–,–,–,–
Nc1ccc(-c2cccs2)cc1NC(=O)c1ccc(N2CCC3(CCNC3)CC2)nc1,372,23,–,–,31,8.6,5.9,3.3,402,100,solubility [13]: 186 µM; logD [14]: 1.45; concentration at 6 h [15]: 3.4 µM; concentration at 24 h [16]: 320 nM; concentration at 48 h [17]: 50 nM; concentration at 72 h [18]: 30 nM; concentration at 6 h [19]: 11 µM; concentration at 24 h [20]: 220 nM; concentration at 6 h [21]: 21 µM; concentration at 24 h [22]: 780 nM; concentration (Canis familiaris [23]): 30 µM; concentration (Canis familiaris [24]): 6 µM

# Second part, led by results:
half-life [1] [min],bioavailability [4] [%],Cmax [5] [µM],AUC [6] [µM·h],clearance [7] [mL/min/kg],Vd [8] [L/kg],clearance [9] [mL/min/kg],Vd [10] [L/kg],half-life [11] [min],bioavailability [12] [%],Structure (SMILES),also measured
–,–,2,10,–,–,–,–,–,–,Nc1ccc(-c2cccs2)cc1NC(=O)c1ccc(N2CCC3(CC2)CNC(=O)N3)nc1,–
156,13,6,14,7.4,0.47,9.8,2.3,408,18,Nc1ccc(-c2cccs2)cc1NC(=O)c1ccc(N2CCC3(CC2)COC(=O)N3)nc1,–
